Assay results from patent US11306123B2, “Heterotandem bicyclic peptide complex” (BicycleTx Limited, priority 2019, dated 2022).
Where two headings read alike, the source gives them in different places.

Key:
[1] = Pharmacokinetics in SD Rats; type: in vivo, rat
Procedure: 3. Pharmacokinetics of the Nectin-4/CD137 Heterotandem BCY11863 in SD Rats
Male SD Rats were dosed with the Nectin-4/CD137 heterotandem BCY11863 formulated in 25 mM Histidine HCl, 10% sucrose pH 7 by IV bolus, IV infusion (15 minutes) or subcutaneously. Serial bleeding (about 80 μL blood/time point) was performed via submandibular or saphenous vein at each time point. All blood samples were immediately transferred into prechilled microcentrifuge tubes containing 2 μL K2-EDTA (0.5M) as anti-coagulant and placed on wet ice. Blood samples were immediately processed for plasma by centrifugation at approximately 4° C., 3000 g. The precipitant including internal standard was immediately added into the plasma, mixed well and centrifuged at 12,000 rpm, 4° C. for 10 minutes. The supernatant was transferred into pre-labeled polypropylene microcentrifuge tubes, and then quick-frozen over dry ice. The samples were stored at […] or below as needed until analysis. 7.5 μL of the supernatant samples were directly injected for LC-MS/MS analysis using an Orbitrap Q Exactive in positive ion mode to determine the concentrations of analyte. Plasma concentration versus time data were analyzed by non-compartmental approaches using the Phoenix WinNonlin 6.3 software program. C0, CI, Vdss, T½, AUC(0-last), AUC(0-inf), MRT(0-last), MRT(0-inf) and graphs of plasma concentration versus time profile were reported.

cyno CD137 = target: T1, cyno CD137 (Macaca fascicularis, UniProt A9YYE7); assay: SPR, biotinylated analogue captured on chip, binding to CD137 extracellular domain
T1 construct: extracellular domain: SPR data

[2] = test system: 5484 full-length human plasma membrane proteins and secreted proteins expressed in HEK293 cells; assay: Retrogenix cell microarray off-target screening; type: binding; settings: 1 μM test peptide
Procedure: Retrogenix microarray screening: Retrogenix's cell microarray technology was used to screen for specific off-target binding interactions of a biotinylated BCY11863 known as BCY13582.
Under these conditions, the test peptide was screened for binding against human HEK293 cells, individually expressing 5484 full-length human plasma membrane proteins and secreted proteins.
Each primary hit was re-expressed, along with two control receptors (TGFBR2 and EGFR), and re-tested with 1 μM BCY13582 test peptide, 1 μM BCY13582 test peptide in the presence of 100 μM BCY11863, and other positive and negative control treatments (FIG. 4). […] These were untethered and tethered forms of Nectin-4, and CD137—the primary targets.

human CD137 = target: T2, human CD137 (Homo sapiens, UniProt Q07011); assay: SPR, biotinylated analogue captured on chip, binding to CD137 extracellular domain
T2 construct: extracellular domain: SPR data

[3] = in vivo, SD rat plasma, analyte after 100 mg/kg IV BCY11863
[4] = in vivo, SD rat plasma, analyte after 100 mg/kg IV BCY11863, read-out: T1/2 (converted)

T1 sequence (A9YYE7 24-186): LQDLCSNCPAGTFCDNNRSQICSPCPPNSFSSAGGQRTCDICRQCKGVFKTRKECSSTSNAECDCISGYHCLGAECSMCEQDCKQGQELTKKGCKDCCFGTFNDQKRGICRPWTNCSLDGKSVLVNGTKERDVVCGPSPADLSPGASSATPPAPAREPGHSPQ
T2 sequence (Q07011 24-186 limits assumed): as the sequence (A9YYE7 24-186) above, with L4P, S19N, K50R, I66T, S67P, Y69F, E75G, A149V counted along it

With `CCCC[C@@H]1NC(=O)[C@H](Cc2ccc(O)cc2)NC(=O)[C@@H]2CCCN2C(=O)[C@H](CC(=O)O)NC(=O)[C@H](C)NC(=O)[C@H](Cc2ccccc2)NC(=O)[C@@H]2CSCCC(=O)N3CN(CN(C3)C(=O)CCSC[C@@H](C(=O)N[C@@H](C)C(N)=O)NC1=O)C(=O)CCSC[C@H](NC(C)=O)C(=O)N[C@@H](CC(C)(C)C)C(=O)N1CCC[C@H]1C(=O)N[C@@H](CCC(=O)O)C(=O)N[C@H](CCCCNC(=O)CCc1cn(CCOCCOCCOCCN(CCOCCOCCOCCC(=O)N[C@H]3CSCCC(=O)N4CN5CN(C4)C(=O)CCSC[C@H](NC(=O)[C@@H](CC(=O)O)NC(=O)[C@H](Cc4cccc6ccccc46)NC(=O)[C@@H]4CCCN4C3=O)C(=O)N[C@@H](CCSC)C(=O)N[C@@H](CCCCNC(=N)N)C(=O)N[C@@H](CC(=O)O)C(=O)N[C@@H](Cc3c[nH]c4ccccc34)C(=O)N[C@@H](CO)C(=O)N[C@@H]([C@@H](C)O)C(=O)N3CCC[C@H]3C(=O)N3C[C@H](O)C[C@H]3C(=O)N[C@@H](Cc3c[nH]c4ccccc34)C(=O)N[C@H](C(N)=O)CSCCC5=O)CCOCCOCCOCCn3cc(CCC(=O)NCCCC[C@H]4NC(=O)[C@H](CCC(=O)O)NC(=O)[C@@H]5CCCN5C(=O)[C@H](CC(C)(C)C)NC(=O)[C@@H](NC(C)=O)CSCCC(=O)N5CN6CN(C5)C(=O)CCSC[C@H](NC(=O)[C@H](Cc5ccc(O)cc5)NC(=O)[C@@H]5CCCN5C4=O)C(=O)N[C@@H](Cc4ccccc4)C(=O)N[C@@H](C)C(=O)N[C@@H](CC(=O)O)C(=O)N4CCC[C@H]4C(=O)N[C@@H](Cc4ccc(O)cc4)C(=O)N[C@@H](CCCC)C(=O)N[C@H](C(=O)N[C@@H](C)C(N)=O)CSCCC6=O)nn3)nn1)C(=O)N1CCC[C@H]1C(=O)N[C@@H](Cc1ccc(O)cc1)C(=O)N2` [BCY11863] the “Conversion to BCY14602” value ([1]; SD rats, IV 100 mg/kg, first 24 h of the study) was “No significant conversion to BCY14602”, the “Fraction metabolized to BCY15155” value ([1]; SD rats, IV administration, 100 mg/kg) was less than 1% and the AUC [1, 3] was 130000 ng·h/mL. The Cmax [1, 3] was 280 µg/mL, the half-life [1, 4] was 5.4 h and the clearance ([1]; in vivo, SD rat, 100 mg/kg IV BCY11863, read-out: Clp) was 13 mL/min/kg. The half-life ([1]; rat, in vivo, SD rats, 3.2 mg/kg IV Inf (15 min), read-out: T½ (converted)) was 3.1 h and the half-life ([1]; rat, in vivo, SD rats, 6.3 mg/kg Sc, read-out: T½ (converted)) was 2.5 h.
Work on `CCCC[C@@H]1NC(=O)[C@H](Cc2ccc(O)cc2)NC(=O)[C@@H]2CCCN2C(=O)[C@H](CC(=O)O)NC(=O)[C@H](C)NC(=O)[C@H](Cc2ccccc2)NC(=O)[C@@H]2CSCCC(=O)N3CN(CN(C3)C(=O)CCSC[C@@H](C(=O)N[C@@H](C)C(N)=O)NC1=O)C(=O)CCSC[C@H](NC(C)=O)C(=O)N[C@@H](CC(C)(C)C)C(=O)N1CCC[C@H]1C(=O)N[C@@H](CCC(=O)O)C(=O)N[C@H](CCCCNC(=O)CCc1cn(CCOCCOCCOCCN(CCOCCOCCOCCC(=O)N[C@H]3CSCCC(=O)N4CN5CN(C4)C(=O)CCSC[C@H](NC(=O)[C@@H](CC(=O)O)NC(=O)[C@H](Cc4cccc6ccccc46)NC(=O)[C@@H]4CCCN4C3=O)C(=O)N[C@@H](CCSC)C(=O)N[C@@H](CCCCNC(=N)N)C(=O)N[C@@H](CC(=O)O)C(=O)N[C@@H](Cc3c[nH]c4ccccc34)C(=O)N[C@@H](CO)C(=O)N[C@@H]([C@@H](C)O)C(=O)N3CCC[C@H]3C(=O)N3C[C@H](O)C[C@H]3C(=O)N[C@@H](Cc3c[nH]c4ccccc34)C(=O)N[C@H](C(N)=O)CSCCC5=O)CCOCCOCCOCCn3cc(CCC(=O)NCCCC[C@H]4NC(=O)[C@H](CCC(=O)O)NC(=O)[C@@H]5CCCN5C(=O)[C@H](CC(C)(C)C)NC(=O)[C@@H](N)CSCCC(=O)N5CN6CN(C5)C(=O)CCSC[C@H](NC(=O)[C@H](Cc5ccc(O)cc5)NC(=O)[C@@H]5CCCN5C4=O)C(=O)N[C@@H](Cc4ccccc4)C(=O)N[C@@H](C)C(=O)N[C@@H](CC(=O)O)C(=O)N4CCC[C@H]4C(=O)N[C@@H](Cc4ccc(O)cc4)C(=O)N[C@@H](CCCC)C(=O)N[C@H](C(=O)N[C@@H](C)C(N)=O)CSCCC6=O)nn3)nn1)C(=O)N1CCC[C@H]1C(=O)N[C@@H](Cc1ccc(O)cc1)C(=O)N2` [BCY15155] yielded an AUC [1, 3] of 1300 ng·h/mL, a Cmax [1, 3] of 2.85 µg/mL and a half-life [1, 4] of 3.1 h.
With `CCCC[C@@H]1NC(=O)[C@H](Cc2ccc(O)cc2)NC(=O)[C@@H]2CCCN2C(=O)[C@H](CC(=O)O)NC(=O)[C@H](C)NC(=O)[C@H](Cc2ccccc2)NC(=O)[C@@H]2CSCCC(=O)N3CN(CN(C3)C(=O)CCSC[C@@H](C(=O)N[C@@H](C)C(N)=O)NC1=O)C(=O)CCSC[C@H](NC(C)=O)C(=O)N[C@@H](CC(C)(C)C)C(=O)N1CCC[C@H]1C(=O)N[C@@H](CCC(=O)O)C(=O)N[C@H](CCCCNC(=O)CCc1cn(CCOCCOCCOCCN(CCOCCOCCOCCC(=O)N[C@H]3CSCCC(=O)N4CN5CN(C4)C(=O)CCSC[C@H](NC(=O)[C@@H](CC(=O)O)NC(=O)[C@H](Cc4cccc6ccccc46)NC(=O)[C@@H]4CCCN4C3=O)C(=O)N[C@@H](CCSC)C(=O)N[C@@H](CCCCNC(=N)N)C(=O)N[C@@H](CC(=O)O)C(=O)N[C@@H](Cc3c[nH]c4ccccc34)C(=O)N[C@@H](CO)C(=O)N[C@@H]([C@@H](C)O)C(=O)N3CCC[C@H]3C(=O)N3C[C@H](O)C[C@H]3C(=O)N[C@@H](Cc3c[nH]c4ccccc34)C(=O)N[C@H](C(N)=O)CSCCC5=O)CCOCCOCCOCCn3cc(CCC(=O)NCCCC[C@H]4NC(=O)[C@H](CCC(=O)O)NC(=O)[C@@H]5CCCN5C(=O)[C@H](CC(C)(C)C)NC(=O)[C@@H](NC(C)=O)CSCCC(=O)N5CN6CN(C5)C(=O)CCSC[C@H](NC(=O)[C@H](Cc5ccc(O)cc5)NC(=O)[C@@H]5CCCN5C4=O)C(=O)N[C@@H](Cc4ccccc4)C(=O)N[C@@H](C)C(=O)N[C@@H](CC(=O)O)C(=O)N4CCC[C@H]4C(=O)N[C@@H](Cc4ccc(O)cc4)C(=O)N[C@@H](CCCC)C(=O)N[C@H](C(=O)N[C@@H](CCCCNC(=O)CCOCCOCCOCCOCCOCCOCCOCCOCCOCCOCCOCCOCCNC(=O)CCCC[C@@H]4SC[C@@H]5NC(=O)N[C@@H]54)C(N)=O)CSCCC6=O)nn3)nn1)C(=O)N1CCC[C@H]1C(=O)N[C@@H](Cc1ccc(O)cc1)C(=O)N2` [BCY13582] the Kd (cyno CD137) was 4.23 nM, the Specific off-target interactions [2] was “No specific off-target interactions were identified” and the Kd (human CD137) was 8.4 ± 4.2 nM.
